# Target: T1, PMGL2 (uncultured bacterium, UniProt Z9SFY5SHV8, S173T/C202S, form not given)
# T1 construct: recombinant, cloned into pET32a, poly-His tag; homodimer; GCSAG motif 172-176, catalytic Ser174, Asp272, His302; 319 residues visible in the mutant crystal
# T1 sequence (Z9SFY5SHV8 1-343 S173T/C202S): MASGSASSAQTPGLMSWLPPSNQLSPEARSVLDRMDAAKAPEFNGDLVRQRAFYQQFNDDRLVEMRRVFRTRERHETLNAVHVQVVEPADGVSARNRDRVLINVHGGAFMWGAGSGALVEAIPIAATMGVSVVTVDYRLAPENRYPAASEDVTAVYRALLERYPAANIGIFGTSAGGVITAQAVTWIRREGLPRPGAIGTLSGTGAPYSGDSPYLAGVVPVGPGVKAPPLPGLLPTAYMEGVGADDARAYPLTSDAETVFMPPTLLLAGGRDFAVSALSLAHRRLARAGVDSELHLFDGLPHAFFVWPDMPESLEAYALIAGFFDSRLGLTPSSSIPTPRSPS
# Assay: esterase kinetics
# Assay type: biochemical
# Settings: 25 °C
compound,measurement,value
CCCC(=O)Oc1ccc([N+](=O)[O-])cc1 [p-nitrophenyl butyrate],Km,450 µM
